In US9605027B2, “Polypeptides that bound to IL-23 receptor and inhibit binding of IL-23 and cell signaling thereof” (Medical Diagnostic Laboratories, LLC, priority 2011, dated 2017) one finds IC50 data, which are given here for one compound.

The target in the test is T1, mouse IL-23R (Mus musculus, UniProt Q8K4B4).
T1 sequence (Q8K4B4 24-644): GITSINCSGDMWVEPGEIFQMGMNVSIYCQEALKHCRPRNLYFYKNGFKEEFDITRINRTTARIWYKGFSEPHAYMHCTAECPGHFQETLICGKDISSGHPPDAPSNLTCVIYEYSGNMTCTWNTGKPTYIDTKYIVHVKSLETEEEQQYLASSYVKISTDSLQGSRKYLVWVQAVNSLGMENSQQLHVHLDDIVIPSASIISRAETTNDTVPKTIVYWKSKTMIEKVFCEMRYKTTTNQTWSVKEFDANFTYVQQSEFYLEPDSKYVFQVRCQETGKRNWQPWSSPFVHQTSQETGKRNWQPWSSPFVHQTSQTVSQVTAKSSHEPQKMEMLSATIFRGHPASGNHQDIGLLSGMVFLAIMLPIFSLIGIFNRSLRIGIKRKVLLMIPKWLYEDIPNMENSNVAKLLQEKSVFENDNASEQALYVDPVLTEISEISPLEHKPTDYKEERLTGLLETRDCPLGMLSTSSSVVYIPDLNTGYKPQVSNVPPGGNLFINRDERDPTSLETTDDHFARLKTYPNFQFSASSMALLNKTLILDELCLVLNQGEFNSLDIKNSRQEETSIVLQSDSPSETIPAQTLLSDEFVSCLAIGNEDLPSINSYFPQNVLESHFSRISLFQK
As to the kind of experiment: Competitive mouse ELISA, mouse IL-23 binding to mouse IL-23R. Particulars: mouse IL-23 / mouse IL-23R-Fc; read-out: IC50, Competitive ELISA in mouse system. An excerpt:
In this study, we tested if the cyclic polypeptide no. 23.15, cyclic polypeptide no. 23.19 and the isolated polypeptide 23.15-Fc fusion protein could inhibit binding of mouse IL-23 to mouse IL-23R. Mouse IL-23 (p19 Gene Accession #: NM_031252; p40 Gene Accession #: NM_008352), the sequence of which is incorporated herein by reference. Mouse IL-23R (Gene Accession #: NM_144548), the sequence of which is incorporated herein by reference. To do so, we performed the Competitive ELISA.
FIG. 46 is a schematic depiction of the Competitive ELISA in mouse. Recombinant mouse IL-23R-Fc (2 μg/ml) was coated onto microtiter plates as a capture reagent. Mouse IL-23 and polypeptide or isolated peptide-Fc fusion protein were added to compete for binding to the immobilized mouse IL-23R-Fc. Mouse IL-23 that bound to mouse IL-23R-Fc was detected using biotinylated anti-p40 antibody (1:250). The bound anti-p40 antibody was detected using streptavidin-horseradish peroxidase (HRP) (1:500) and 100 μl/well of a tetramethylbenzidine (TMB) substrate was added to measure peroxidase activity. The color was measured at optical density (OD) 450nm. The color intensity was directly proportional to the amount of the bound mouse IL-23 protein.
The isolated polypeptide no. 23.15-Fc fusion protein, cyclic polypeptide no. 23.19 and polypeptide no. […] The IC50 values were calculated.

Consider `CSCC[C@@H]1NC(=O)[C@H](C)NC(=O)[C@@H](N)CSSC[C@@H](C(=O)O)NC(=O)[C@H](CCCNC(=N)N)NC(=O)CNC(=O)[C@H](Cc2ccc(O)cc2)NC(=O)[C@H](CC(C)C)NC(=O)[C@H](Cc2c[nH]c3ccccc23)NC(=O)[C@H](Cc2ccc(O)cc2)NC(=O)[C@H](CC(=O)O)NC(=O)[C@H](CCC(N)=O)NC(=O)[C@H](Cc2c[nH]c3ccccc23)NC(=O)[C@H]([C@@H](C)O)NC1=O` [23.19], for which the IC50 came out at 12.5 µM.
